Measurements as given in patent publication US12178842B2, “PCSK9 antagonist compounds” (MERCK SHARP & DOHME LLC, priority 2019, dated 2024).

Legend:
Assay type in all cases: binding
[1] = target: T1, PCSK9 (Homo sapiens, UniProt Q8NBP7); assay: PCSK9 Alexa FRET Ultra TR-FRET assay
T1 construct: biotin (biotinylated); purchased
Description: A separate solution containing 1920 nM of the AlexaFluor tagged cyclic peptide is made in the same buffer system. […] The reaction is incubated at room temperature for at least two hours prior to fluorescence measurements using an Envision Multilabel Reader. IC50 values are determined by fitting data to a sigmoidal dose-response curve using nonlinear regression. Ki is then calculated from the Ic50 and the KD of AF cyclic peptide. Counts (B-counts) of the europium-labeled PCSK9 are followed to observe if compounds are adversely affecting PCSK9. A fall off of the B-counts is likely indicates a false positive of inhibition. Data from this procedure is reported as “Ki Ultra=‘numerical value’ (data reported is nanomolar)”

[2] = target: T1, PCSK9; assay: PCSK9 Alexa FRET Plus TR-FRET assay
Description: A separate solution containing 1920 nM of the AlexaFluor tagged cyclic peptide is made in the same buffer system. […] The reaction is incubated at room temperature for at least two hours prior to fluorescence measurements using an Envision Multilabel Reader. IC50 values are determined by fitting data to a sigmoidal dose-response curve using nonlinear regression. Ki is then calculated from the Ic50 and the KD of AF cyclic peptide. Counts (B-counts) of the europium-labeled PCSK9 are followed to observe if compounds are adversely affecting PCSK9. A fall off of the B-counts is likely indicates a false positive of inhibition. Data from this procedure is reported as “P=‘numerical value’ (nanomolar)”

[3] = target: T1, PCSK9; assay: PCSK9 Alexa FRET Standard TR-FRET assay; details: Ki calculated from IC50 and KD of AF cyclic peptide Reagent A; 0.5 nM PCSK9, 20 nM AF cyclic peptide; read-out: Alexa FRET Stdt TR-FRET
Description: A solution containing 1 nM biotinylated PCSK9+2.5 nM Lance Streptavidin Europium (Strep-Eu) is made in 50 mM HEPES pH 7.4, 0.15 M NaCl, 5 mM CaCl2, 0.01% BSA, and 0.01% Surfactant P20. A separate solution containing 40 nM of the AlexaFluor tagged cyclic peptide is made in the same buffer system. An Echo is used to transfer 0.750 ul of compound to an assay plate followed by the addition of 15 ul of PCSK9+Stept-Eu and 15 ul of AF peptide. The final assay volume is 30.750 ul containing 0.5 nM PCSK9, 1.25 nM Strep-Eu, and 20 nM AF cyclic peptide. The reaction is incubated at room temperature for at least two hours prior to fluorescence measurements using an Envision Multilabel Reader. IC50 values are determined by fitting data to a sigmoidal dose-response curve using nonlinear regression. Ki is then calculated from the Ic50 and the KD of AF cyclic peptide. Counts (B-counts) of the europium-labeled PCSK9 are followed to observe if compounds are adversely PCSK9. A fall off of the B-counts likely indicates a false positive of inhibition. Data from this procedure is reported as “A=‘numerical value’ (nanomolar)”

[4] = Ki Ultra, calculated from IC50 and KD of AF cyclic peptide, 0.5 nM PCSK9, 960 nM AF cyclic peptide, read-out: Alexa FRET Ultra TR-FRET
[5] = Ki calculated from IC50 and KD of AF cyclic peptide Reagent B, 0.5 nM PCSK9, 960 nM AF cyclic peptide, read-out: Alexa FRET Plus TR-FRET

T1 sequence (Q8NBP7 153-692): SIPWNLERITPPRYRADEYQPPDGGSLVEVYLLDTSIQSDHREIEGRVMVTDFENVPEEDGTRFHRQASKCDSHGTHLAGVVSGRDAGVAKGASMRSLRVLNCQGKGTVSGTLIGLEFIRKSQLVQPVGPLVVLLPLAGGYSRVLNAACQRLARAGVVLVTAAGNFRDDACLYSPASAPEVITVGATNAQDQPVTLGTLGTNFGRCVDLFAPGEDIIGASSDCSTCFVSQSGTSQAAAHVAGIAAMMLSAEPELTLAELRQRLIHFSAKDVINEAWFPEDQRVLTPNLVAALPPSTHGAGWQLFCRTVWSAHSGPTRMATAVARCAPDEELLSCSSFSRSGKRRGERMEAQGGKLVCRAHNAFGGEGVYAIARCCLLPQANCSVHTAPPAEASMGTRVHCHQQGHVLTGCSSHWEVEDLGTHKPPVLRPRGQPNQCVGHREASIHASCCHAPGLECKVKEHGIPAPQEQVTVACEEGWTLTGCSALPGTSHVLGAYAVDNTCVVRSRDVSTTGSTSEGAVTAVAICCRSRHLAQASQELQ

`COc1ccc(C[C@@H]2NC(=O)[C@H]([C@@H](C)O)NC(=O)[C@@H]3[C@@H]4CCN3C(=O)[C@@H]3Cc5cn(c6ccc(F)cc56)C/C=C/CCCN(Cc5ccc(cc5)CCNC(=O)[C@]5(C)CCCN5C2=O)C(=O)CCC(=O)N[C@@H](C)C(=O)N[C@H](CNC(=O)CCCCC[N+](C)(C)CCNC(=O)COCCOCCNC(=O)COCCOCCNC(=O)CC[C@H](NC(=O)CCCCCCCCCCCCCCCCC(=O)O)C(=O)O)C(=O)N[C@@H](Cc2cccc(c2)CNC(=O)CO4)C(=O)N3)cc1` [Ex-25] was tested, and the Ki [1, 4] was 0.009 nM, the Ki [2, 5] was 0.006 nM and the Ki [3] was < 1.26 nM.

In the case of `COc1ccc(C[C@@H]2NC(=O)[C@H]([C@@H](C)O)NC(=O)[C@@H]3[C@@H]4CCN3C(=O)[C@@H]3Cc5cn(c6ccc(F)cc56)CCCCCCN(Cc5ccc(cc5)CCNC(=O)[C@]5(C)CCCN5C2=O)C(=O)CCC(=O)N[C@@H](C)C(=O)N[C@H](CNC(=O)CCCCC[N+](C)(C)CCNC(=O)CCCCC[N+](C)(C)CCNC(=O)COCCOCCNC(=O)COCCOCCNC(=O)CC[C@H](NC(=O)CCCCCCCCCCCCCCCCC(=O)O)C(=O)O)C(=O)N[C@@H](Cc2cccc(c2)CNC(=O)CO4)C(=O)N3)cc1` [Ex-26], the Ki [1, 4] is reported as 0.008 nM, the Ki [2, 5] is reported as 0.006 nM and the Ki [3] is reported as < 1.26 nM.

`COc1ccc(C[C@@H]2NC(=O)[C@H]([C@@H](C)O)NC(=O)[C@@H]3[C@@H]4CCN3C(=O)[C@@H]3Cc5cn(c6ccc(F)cc56)CCCCCCN(Cc5ccc(cc5)CCNC(=O)[C@]5(C)CCCN5C2=O)C(=O)CCC(=O)N[C@@H](C)C(=O)N[C@H](CNC(=O)CCCCC[N+](C)(C)CCNC(=O)COCCOCCNC(=O)COCCOCCNC(=O)CC[C@H](NC(=O)CCCCCCCCCCCCCCCCCCC(=O)O)C(=O)O)C(=O)N[C@@H](Cc2cccc(c2)CNC(=O)CO4)C(=O)N3)cc1` [Ex-27] was tested, and the Ki [1] was 0.006 nM, the Ki [2] was 0.014 nM and the Ki [3] was < 1.26 nM.

For `COc1ccc(C[C@@H]2NC(=O)[C@H]([C@@H](C)O)NC(=O)[C@@H]3[C@@H]4CCN3C(=O)[C@@H]3Cc5cn(c6ccc(F)cc56)CCCCCCN(Cc5ccc(cc5)CCNC(=O)[C@]5(C)CCCN5C2=O)C(=O)CCC(=O)N[C@@H](C)C(=O)N[C@H](CNC(=O)COCCOCCOCCOCCNC(=O)CCCCC[N+](C)(C)CCNC(=O)COCCOCCNC(=O)COCCOCCNC(=O)CC[C@@H](NC(=O)CCCCCCCCCCCCCCCCC(=O)O)C(=O)O)C(=O)N[C@@H](Cc2cccc(c2)CNC(=O)CO4)C(=O)N3)cc1` [Ex-28], the Ki [1, 4] was 0.01 nM, the Ki [2, 5] was 0.013 nM and the Ki [3] was < 1.26 nM.

For `COc1ccc(C[C@@H]2NC(=O)[C@H]([C@@H](C)O)NC(=O)[C@@H]3[C@@H]4CCN3C(=O)[C@@H]3Cc5cn(c6ccc(F)cc56)CCCCCCN(Cc5ccc(cc5)CCNC(=O)[C@]5(C)CCCN5C2=O)C(=O)CCC(=O)N[C@@H](C)C(=O)N[C@H](CNC(=O)COCCOCCNC(=O)COCCOCCNC(=O)CCOCCOCC[N+](C)(C)CCNC(=O)COCCOCCNC(=O)COCCOCCNC(=O)CC[C@H](NC(=O)CCCCCCCCCCCCCCCCC(=O)O)C(=O)O)C(=O)N[C@@H](Cc2cccc(c2)CNC(=O)CO4)C(=O)N3)cc1` [Ex-29], the Ki [1, 4] was 0.013 nM, the Ki [2, 5] was 0.011 nM and the Ki [3] was < 1.26 nM.

In the case of `COc1ccc(C[C@@H]2NC(=O)[C@H]([C@@H](C)O)NC(=O)[C@@H]3[C@@H]4CCN3C(=O)[C@@H]3Cc5cn(c6ccc(F)cc56)CCCCCCN(Cc5ccc(cc5)CCNC(=O)[C@]5(C)CCCN5C2=O)C(=O)CCC(=O)N[C@@H](C)C(=O)N[C@H](CNC(=O)COCCOCC[N+](C)(C)CCOCCNC(=O)COCCOCCNC(=O)COCCOCCNC(=O)CC[C@H](NC(=O)CCCCCCCCCCCCCCCCC(=O)O)C(=O)O)C(=O)N[C@@H](Cc2cccc(c2)CNC(=O)CO4)C(=O)N3)cc1` [Ex-31], the Ki [1, 4] is reported as 0.006 nM, the Ki [2, 5] is reported as < 0.006 nM and the Ki [3] is reported as < 1.26 nM.

`COc1ccc(C[C@@H]2NC(=O)[C@H]([C@@H](C)O)NC(=O)[C@@H]3[C@@H]4CCN3C(=O)[C@@H]3Cc5cn(c6ccc(F)cc56)CCCCCCN(Cc5ccc(cc5)CCNC(=O)[C@]5(C)CCCN5C2=O)C(=O)CCC(=O)N[C@@H](C)C(=O)N[C@H](CNC(=O)CCOCCOCC[N+](C)(C)CCNC(=O)COCCOCCNC(=O)COCCOCCNC(=O)CC[C@H](NC(=O)CC[C@H](NC(=O)CCCCCCCCCCCCCCC(=O)O)C(=O)O)C(=O)O)C(=O)N[C@@H](Cc2cccc(c2)CNC(=O)CO4)C(=O)N3)cc1` [Ex-34] was tested, and the Ki [1, 4] was 0.003 nM, the Ki [2, 5] was < 0.006 nM and the Ki [3] was < 1.26 nM.

In the case of `COc1ccc(C[C@@H]2NC(=O)[C@H]([C@@H](C)O)NC(=O)[C@@H]3[C@@H]4CCN3C(=O)[C@@H]3Cc5cn(c6ccc(F)cc56)CCCCCCN(Cc5ccc(cc5)CCNC(=O)[C@]5(C)CCCN5C2=O)C(=O)CCC(=O)N[C@@H](C)C(=O)N[C@H](CNC(=O)COCC[N+](C)(C)CCOCCNC(=O)COCCOCCNC(=O)COCCOCCNC(=O)CC[C@H](NC(=O)CCCCCCCCCCCCCCCCC(=O)O)C(=O)O)C(=O)N[C@@H](Cc2cccc(c2)CNC(=O)CO4)C(=O)N3)cc1` [Ex-35], the Ki [1, 4] is reported as 0.009 nM, the Ki [2, 5] is reported as 0.007 nM and the Ki [3] is reported as < 1.26 nM.

With `CCCCCCCCCCCCCCCC(=O)NCC[N+](C)(C)CCOCCOCCC(=O)NC[C@H]1NC(=O)[C@H](C)NC(=O)CCC(=O)N2CCCCCCn3cc(c4cc(F)ccc43)C[C@@H]3NC(=O)[C@H](Cc4cccc(c4)CNC(=O)CO[C@H]4CCN(C3=O)[C@@H]4C(=O)N[C@@H]([C@@H](C)O)C(=O)N[C@@H](Cc3ccc(OC)cc3)C(=O)N3CCC[C@@]3(C)C(=O)NCCc3ccc(cc3)C2)NC1=O` [Ex-36] the Ki [1, 4] was 0.016 nM, the Ki [2, 5] was 0.044 nM and the Ki [3] was < 1.26 nM.

In the case of `CCCCCCCCCCCCCCCC(=O)NCC[N+](C)(C)CCOCCOCCC(=O)NCCOCCOCC(=O)NCCOCCOCC(=O)NC[C@H]1NC(=O)[C@H](C)NC(=O)CCC(=O)N2CCCCCCn3cc(c4cc(F)ccc43)C[C@@H]3NC(=O)[C@H](Cc4cccc(c4)CNC(=O)CO[C@H]4CCN(C3=O)[C@@H]4C(=O)N[C@@H]([C@@H](C)O)C(=O)N[C@@H](Cc3ccc(OC)cc3)C(=O)N3CCC[C@@]3(C)C(=O)NCCc3ccc(cc3)C2)NC1=O` [Ex-38], the Ki [1, 4] is reported as 0.012 nM, the Ki [2, 5] is reported as 0.013 nM and the Ki [3] is reported as < 1.26 nM.

For `COc1ccc(C[C@@H]2NC(=O)[C@H]([C@@H](C)O)NC(=O)[C@@H]3[C@@H]4CCN3C(=O)[C@@H]3Cc5cn(c6ccc(F)cc56)CCCCCCN(Cc5ccc(cc5)CCNC(=O)[C@]5(C)CCCN5C2=O)C(=O)CCC(=O)N[C@@H](C)C(=O)N[C@H](CNC(=O)COCCOCCNC(=O)COCCOCCNC(=O)CCOCCOCC[N+](C)(C)CCNC(=O)CCCCCCCCCCCCCCC(=O)O)C(=O)N[C@@H](Cc2cccc(c2)CNC(=O)CO4)C(=O)N3)cc1` [Ex-39], the Ki [1, 4] was 0.003 nM, the Ki [2, 5] was < 0.006 nM and the Ki [3] was < 1.26 nM.

With `COc1ccc(C[C@@H]2NC(=O)[C@H]([C@@H](C)O)NC(=O)[C@@H]3[C@@H]4CCN3C(=O)[C@@H]3Cc5cn(c6ccc(F)cc56)CCCCCCN(Cc5ccc(cc5)CCNC(=O)[C@]5(C)CCCN5C2=O)C(=O)CCC(=O)N[C@@H](C)C(=O)N[C@H](CNC(=O)COCCOCC[N+](C)(C)CCNC(=O)COCCOCCNC(=O)COCCOCCNC(=O)CC[C@H](NC(=O)CCCCCCCCCCCCCCCCC(=O)O)C(=O)O)C(=O)N[C@@H](Cc2cccc(c2)CNC(=O)CO4)C(=O)N3)cc1` [Ex-40] the Ki [1, 4] was 0.004 nM, the Ki [2, 5] was 0.008 nM and the Ki [3] was < 1.26 nM.

`COc1ccc(C[C@@H]2NC(=O)[C@H]([C@@H](C)O)NC(=O)[C@@H]3[C@@H]4CCN3C(=O)[C@@H]3Cc5cn(c6ccc(F)cc56)CCCCCCN(Cc5ccc(cc5)CCNC(=O)[C@]5(C)CCCN5C2=O)C(=O)CCC(=O)N[C@@H](C)C(=O)N[C@H](CNC(=O)COCCOCCNC(=O)COCCOCCNC(=O)CC[C@H](NC(=O)CCCCCCCCCCCCCCC(=O)O)C(=O)O)C(=O)N[C@@H](Cc2cccc(c2)CNC(=O)CO4)C(=O)N3)cc1` [Ex-41] was tested, and the Ki [1, 4] was 0.005 nM, the Ki [2, 5] was < 0.006 nM and the Ki [3] was < 1.26 nM.
